According to PubChem BioAssay (NCI):
Where “and” joins values, the source holds several entries; their conditions need not be identical. Identical values can stand only once.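 Compound exposure: 48 hours, 5 concentrations, 96-well plates. At the GI50, growth is halved. TGI: total growth inhibition.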 *1 amine or outer side, *2 acyl side, *3 side chain or, on linkers, in order; H or OH if unused. Where a SMILES comes first, the peptide text is derived from it. [ ]: non-standard residue; d: D form. The star is where a group is joined. X12 = NCCCCC(N[*:1])C(=O)CN1CCCC1C(=O)[*:2]; Pentadecanoyl = CCCCCCCCCCCCCCC(=O)*

Experiments:
Assay in all cases: NCI tumour cell line growth inhibition, 48 h
HCT-15 colon = test system: HCT-15 colon
MDA-MB-231 breast = test system: MDA-MB-231 breast
SK-MEL-28 melanoma = test system: SK-MEL-28 melanoma
HT29 colon = test system: HT29 colon
M14 melanoma = test system: M14 melanoma
NCI-H226 lung = test system: NCI-H226 lung
OVCAR-4 ovarian = test system: OVCAR-4 ovarian
LOX IMVI melanoma = test system: LOX IMVI melanoma
NCI-H23 lung = test system: NCI-H23 lung
SNB-19 CNS = test system: SNB-19 CNS

| Compound | TGI (HCT-15 colon) | TGI (MDA-MB-231 breast) | TGI (SK-MEL-28 melanoma) | TGI (HT29 colon) | TGI (M14 melanoma) | TGI (NCI-H226 lung) | TGI (OVCAR-4 ovarian) | TGI (LOX IMVI melanoma) | TGI (NCI-H23 lung) | TGI (SNB-19 CNS) | GI50 (MDA-MB-231 breast) | GI50 (SNB-19 CNS) | GI50 (SK-MEL-28 melanoma) | GI50 (HT29 colon) | GI50 (M14 melanoma) | GI50 (NCI-H226 lung) | GI50 (OVCAR-4 ovarian) | GI50 (NCI-H23 lung) | GI50 (LOX IMVI melanoma) |
| --- | --- | --- | --- | --- | --- | --- | --- | --- | --- | --- | --- | --- | --- | --- | --- | --- | --- | --- | --- |
| [O-][n+]1cc(SCc2ccccc2)ncc1SCc1ccccc1 | > 10 µM | > 10 µM | > 10 µM | > 10 µM | > 10 µM | > 10 µM | > 10 µM | > 10 µM | > 10 µM |  |  |  |  |  |  |  |  |  |  |
| O=C1/C(=C/Cc2ccco2)N=C(c2ccccc2)N1c1nc2c(Cl)cc(Cl)cc2s1 | > 100 µM | 82.2 µM | > 100 µM | 98.2 µM | > 100 µM |  | 75.6 µM | > 100 µM |  | > 100 µM |  |  |  |  |  |  |  |  |  |
| CC1[C@@H]2C[C@@H]3O[C@@]34[C@H]3CCC5Cc6nc7c(nc6C[C@@]5(C)C3(O)CC(=O)[C@@]24CO[C@]12OC(C)(C)CC2O)CC1CC[C@@H]2C3=C[C@H]4O[C@@]5(O[C@@](C)(CO)C[C@@H]5O)C(C)[C@@]4(O)[C@]3(C)[C@@H](O)CC2[C@]1(C)C7 (stereo not given in full) | 2.66 µM |  |  | 0.0945 µM |  | > 3.52 µM | > 3.52 µM | > 3.52 µM | 0.467 µM |  |  |  |  |  |  |  |  |  |  |
| Cc1cc(N)c2cc(NC(=O)CCCCCCCCC(=O)Nc3ccc4nc(C)cc(N)c4c3)ccc2n1 | > 100 µM |  | 97 µM | > 100 µM | > 100 µM | 56.3 µM | > 100 µM | > 100 µM | > 100 µM | > 100 µM |  |  |  |  |  |  |  |  |  |
| Nc1nc(Cl)cc(NCC2CC(O)(CO)C2)n1 (stereo not given) | > 100 µM | > 100 µM | > 100 µM | > 100 µM |  | > 100 µM | > 100 µM | > 100 µM | > 100 µM |  |  |  |  |  |  |  |  |  |  |
| O=C(OCC(OC(=O)c1ccccc1)C1CC(C(O)C2CCCCC2)C(=O)O1)c1ccccc1 (stereo not given) | > 100 µM | > 100 µM |  |  | > 100 µM | > 100 µM | > 100 µM | > 100 µM | > 100 µM | > 100 µM |  |  |  |  |  |  |  |  |  |
| O=C(c1cccs1)N(C(=O)N1CCCCC1)c1ccccc1 | > 100 µM | > 100 µM | > 100 µM | > 100 µM | > 100 µM | > 100 µM |  | > 100 µM | > 100 µM | > 100 µM |  |  |  |  |  |  |  |  |  |
| CC1CC/C(=C\c2ccc(F)cc2)C2=C1C(c1ccc(F)cc1)NC(=S)N2 (stereo not given) | > 100 µM | > 100 µM | > 100 µM | > 100 µM | > 100 µM | > 100 µM |  | > 100 µM | > 100 µM | > 100 µM |  |  |  |  |  |  |  |  |  |
| CCCCCCCCCCCCCCC(=O)NC(CCCCN)C(=O)CN1CCCC1C(=O)NCC(=O)NC(Cc1ccccc1)C(=O)N1CCCC1C(=O)NC(CO)C(=O)NC(Cc1ccc(O)cc1)C(=O)NC(CCCCN)C(=O)NC(CC(C)C)C(=O)NC(CCCN=C(N)N)C(=O)N1CCCC1C(=O)NCC(N)=O (stereo not given) (Pentadecanoyl-[X12]GFPSYKLRPG-NH2; configuration not given here) |  | 32.5 µM | 60.6 µM | > 100 µM | 39.8 µM | 38.6 µM | 87.2 µM |  | 49.6 µM | 50.4 µM | 16.7 µM | 24.4 µM | 25.7 µM | 36.9 µM | 19.2 µM | 17.8 µM | 34.8 µM | 21.7 µM |  |
| CCOC(=O)C1=C(C)N(c2ccc(Cl)cc2)C2(O)C=CC(=O)C3C(=O)N(c4ccccc4)C(=O)C132 (stereo not given) | 4.37 µM | 4.59 µM | 3.06 µM | 3.18 µM | 3.29 µM |  | 3.25 µM | 3.69 µM | 4.75 µM | 8.1 µM |  |  |  |  |  |  |  |  |  |
| c1ccc(C2C3=C(CCCC3)Nc3nnnn32)cc1 (stereo not given) | > 100 µM | > 100 µM |  |  | > 100 µM |  |  | > 100 µM | > 100 µM | > 100 µM |  |  |  |  |  |  |  |  |  |
| C(=N\Nc1nnc(-c2nnc(N/N=C/c3ccccc3)o2)o1)/c1ccccc1 | > 10 µM | > 10 µM | > 10 µM | > 10 µM | > 10 µM | > 10 µM | > 10 µM |  | > 10 µM | > 10 µM |  |  |  |  |  |  |  |  |  |
| COc1ccc(-c2nc3ncccn3c2-c2ccc(S(C)(=O)=O)cc2)cc1 | > 100 µM | > 100 µM | > 100 µM | > 100 µM | > 100 µM |  | > 100 µM | > 100 µM | > 100 µM | > 100 µM |  |  |  |  |  |  |  |  |  |
| CN(C)CCSc1nccc(-c2ccc(-c3ccnc(SCCN(C)C)n3)s2)n1 | 17.3 µM |  | 36.2 µM | 10.3 µM |  | 27.7 µM | 16.2 µM | 11.9 µM | 28.3 µM | 38.8 µM |  |  |  |  |  |  |  |  |  |
| COc1ccc(Cn2nc(OCc3ccccc3)c3cc([N+](=O)[O-])ccc32)cc1 | > 100 µM | > 100 µM | > 100 µM | > 100 µM | > 100 µM | > 100 µM |  | > 100 µM | > 100 µM | > 100 µM |  |  |  |  |  |  |  |  |  |
| C/C(=C\c1ccccc1)n1c(=O)cc(C)n1C |  |  | > 100 µM | > 100 µM | > 100 µM | > 100 µM | > 100 µM | > 100 µM | > 100 µM | > 100 µM |  |  |  |  |  |  |  |  |  |
| N#Cc1nc(C(=O)c2ccccc2)oc1N | > 100 µM | > 100 µM | > 100 µM | > 100 µM | > 100 µM |  | > 100 µM | > 100 µM |  | > 100 µM |  |  |  |  |  |  |  |  |  |
| O=c1[nH]c(=O)c2c([nH]1)[nH]c1ccccc12 | > 100 µM | > 100 µM |  | > 100 µM | > 100 µM | > 100 µM | > 100 µM | > 100 µM | > 100 µM | > 100 µM |  |  |  |  |  |  |  |  |  |
| O=S1(=O)OCCOS(=O)(=O)C1S(=O)(=O)c1cccc2ccccc12 | > 100 µM | > 100 µM | > 100 µM | > 100 µM | > 100 µM |  | > 100 µM | > 100 µM | > 100 µM |  |  |  |  |  |  |  |  |  |  |
| COc1ccc(OC)c([N+](=O)[O-])c1-c1nc2sc(C)cn2c1/C=N/N=C(N)N | > 100 µM | 84.4 µM | 43.5 µM | 50.1 µM | > 100 µM | 92.7 µM | 47.3 µM | > 100 µM | 66 µM |  |  |  |  |  |  |  |  |  |  |
| COc1cccc2c1C(=O)c1c(O)c3c(c(O)c1C2=O)C[C@@](O)(C(=O)CO)CC3OC1CC(NCCCCC(OC(C)=O)OC(C)=O)C(O)C(C)O1 (stereo not given in full) | > 1 µM |  |  | 0.0125 µM | 0.00458 µM and 0.00549 µM | 0.00568 µM | 0.00449 µM and 0.00985 µM | 0.00829 µM and 0.0302 µM | 0.00237 µM | > 1 µM |  |  |  | 0.00103 µM | 0.0011 µM |  |  | 0.000808 µM | 0.000488 µM |
| C[S+](C)C1(c2ccccc2)C(=O)c2ccccc2C1=O | > 100 µM |  | > 100 µM | > 100 µM | > 100 µM | > 100 µM | > 100 µM | > 72.7 µM | > 100 µM | > 100 µM |  |  |  |  |  |  |  |  |  |
